Assays:
[1] = tested on: MDA-MB-231; assay: Antiproliferative activity against human MDA-MB-231 cells after 48 hrs by MTT assay; type: functional, cell-based; conditions: MDA-MB-231, 48 h
[2] = tested on: HepG2; assay: Antiproliferative activity against human HepG2 cells after 48 hrs by MTT assay; type: functional, cell-based; conditions: HepG2, 48 h
[3] = tested on: MCF7; assay: Antiproliferative activity against human MCF7 cells after 48 hrs by MTT assay; type: functional, cell-based; conditions: MCF7, 48 h
[4] = tested on: SK-HEP1; assay: Antiproliferative activity against human SKHEP1 cells after 48 hrs by MTT assay; type: functional, cell-based; conditions: SK-HEP1, 48 h
[5] = Drug localization in human HepG2 cells at 10 uM after 2 hrs by confocal laser scanning microscopic analysis; type: ADME, cell-based; conditions: hepg2, 2 h
[6] = Drug localization in mitochondria of human HepG2 cells at 10 uM after 30 mins by Rh123 green dye-based confocal laser scanning microscopic analysis; type: ADME; conditions: 0.5 h

Structure (SMILES) | IC50 [1] [µM] | IC50 [2] [µM] | IC50 [3] [µM] | IC50 [4] [µM] | Drug uptake [5] | Drug uptake [6]
CC(C)c1ccc(NC(=O)CO/N=C2\CC[C@H]3C4=CC=C5C[C@@H](O)CC[C@]5(C)[C@H]4CC[C@]23C)cc1 | 35 | 26.7 | 31.6 | 23.2 |  | 
C[C@]12CC[C@H](O)CC1=CC=C1[C@@H]2CC[C@]2(C)/C(=N/OCC(=O)Nc3cccc(Cl)c3)CC[C@@H]12 | 33.5 | 22.7 | 42.1 | 26.6 |  | 
C[C@]12CC[C@@H]3[C@]4(C=C[C@]5(C[C@@H](O)CC[C@]35C)OO4)[C@@H]1CC/C2=N\OCC(=O)Nc1cccc(C(F)(F)F)c1 | 20.4 | 13.5 | 23.1 | 15.6 |  | 
Cc1ccc(NC(=O)CO/N=C2\CC[C@H]3[C@@]45C=C[C@]6(C[C@@H](O)CC[C@]6(C)[C@@H]4CC[C@]23C)OO5)cc1Cl | 17.5 | 9.3 | 22.7 | 12.1 |  | 
CCN(CC)c1ccc2cc(C(=O)NCC(=O)OC3CC[C@]4(C)[C@@H]5CC[C@]6(C)/C(=N/OCC(=O)Nc7ccc(C(C)C)cc7)CC[C@H]6[C@@]56C=C[C@]4(C3)OO6)c(=O)oc2c1 (some centres undefined) | 7.22 | 8.4 | 9.64 | 7.52 | Active | Active
C[C@]12CC[C@H](O)CC1=CC=C1[C@@H]2CC[C@]2(C)/C(=N/OCC(=O)Nc3cccc(C(F)(F)F)c3)CC[C@@H]12 | 19.4 | 14.4 | 21.3 | 16.5 |  | 
C[C@]12CC[C@@H]3[C@]4(C=C[C@]5(C[C@@H](O)CC[C@]35C)OO4)[C@@H]1CC/C2=N\OCC(=O)Nc1ccc(F)cc1 | 12.7 | 15.8 | 14.5 | 10.7 |  | 
Cc1cccc(NC(=O)CO/N=C2\CC[C@H]3[C@@]45C=C[C@]6(C[C@@H](O)CC[C@]6(C)[C@@H]4CC[C@]23C)OO5)c1 | 45.5 | 35.4 | 41.6 | 30.6 |  | 
C#Cc1cccc(NC(=O)CO/N=C2\CC[C@H]3[C@@]45C=C[C@]6(C[C@@H](O)CC[C@]6(C)[C@@H]4CC[C@]23C)OO5)c1 | 25.1 | 44.2 | 31.6 | 38.2 |  | 
C[C@]12CC[C@@H]3[C@]4(C=C[C@]5(C[C@@H](O)CC[C@]35C)OO4)[C@@H]1CC/C2=N\OCC(=O)Nc1ccc(Br)cc1 | 37.5 | 29.9 | 40.3 | 24.4 |  | 
C[C@]12CC[C@@H]3[C@]4(C=C[C@]5(C[C@@H](O)CC[C@]35C)OO4)[C@@H]1CC/C2=N\OCC(=O)Nc1ccccc1 | 74.2 | 48.3 | > 80 | 60.4 |  | 
C[C@]12CC[C@@H]3[C@]4(C=C[C@]5(C[C@@H](O)CC[C@]35C)OO4)[C@@H]1CC/C2=N\OCC(=O)Nc1cccc(F)c1 | 26.3 | 40.5 | 29.5 | 37.6 |  | 
Cc1ccc(NC(=O)CO/N=C2\CC[C@H]3[C@@]45C=C[C@]6(C[C@@H](O)CC[C@]6(C)[C@@H]4CC[C@]23C)OO5)cc1 | > 80 | 38.3 | 62.2 | 46.3 |  | 
COc1cccc(NC(=O)CO/N=C2\CC[C@H]3[C@@]45C=C[C@]6(C[C@@H](O)CC[C@]6(C)[C@@H]4CC[C@]23C)OO5)c1 | 57.3 | 44.9 | 43.2 | 50.2 |  | 
CC(C)c1ccc(NC(=O)CO/N=C2\CC[C@H]3[C@@]45C=C[C@]6(C[C@@H](O)CC[C@]6(C)[C@@H]4CC[C@]23C)OO5)cc1 | 15.8 | 12.1 | 20.4 | 14.6 |  | 
COc1ccc(NC(=O)CO/N=C2\CC[C@H]3[C@@]45C=C[C@]6(C[C@@H](O)CC[C@]6(C)[C@@H]4CC[C@]23C)OO5)cc1 | 46.4 | 49.5 | 52.2 | 41.4 |  | 
C[C@]12CC[C@@H]3[C@]4(C=C[C@]5(C[C@@H](O)CC[C@]35C)OO4)[C@@H]1CC/C2=N\OCC(=O)Nc1ccc(F)c(Cl)c1 | 24.6 | 11.3 | 26.2 | 14.3 |  | 
C[C@]12CC[C@@H]3[C@]4(C=C[C@]5(C[C@@H](O)CC[C@]35C)OO4)[C@@H]1CC/C2=N\OCC(=O)Nc1cccc(Cl)c1 | 29.5 | 15.4 | 34.4 | 22.8 |  | 
C[C@]12CC[C@@H]3[C@]4(C=C[C@]5(C[C@@H](O)CC[C@]35C)OO4)[C@@H]1CC/C2=N\OCC(=O)Nc1ccc(Cl)cc1 | 14.2 | 14.8 | 19.5 | 11.1 |  | 
COc1cccc(NC(=O)CO/N=C2\CC[C@H]3C4=CC=C5C[C@@H](O)CC[C@]5(C)[C@H]4CC[C@]23C)c1 | 59.3 | 70.6 | > 80 | > 80 |  | 
C[C@]12CC[C@H](O)CC1=CC=C1[C@@H]2CC[C@]2(C)/C(=N/OCC(=O)Nc3ccccc3)CC[C@@H]12 | > 80 | > 80 | > 80 | 73.8 |  | 
Cc1ccc(NC(=O)CO/N=C2\CC[C@H]3C4=CC=C5C[C@@H](O)CC[C@]5(C)[C@H]4CC[C@]23C)cc1Cl | 29.2 | 17.8 | 34.3 | 19.8 |  | 
CC(C)[C@@H](C)/C=C/[C@@H](C)[C@H]1CC[C@@H]2[C@]1(C)CC[C@@H]1[C@]23C=C[C@]2(C[C@@H](O)CC[C@]12C)OO3 | 19.2 | 15.8 | 23.3 | 17.2 |  | 

From ChEMBL document CHEMBL4052725, “Synthesis and biological evaluation of novel steroidal 5α,8α-epidioxyandrost-6-ene-3β-ol-17-(O-phenylacetamide)oxime derivatives as potential anticancer agents” (Bioorg Med Chem Lett, 2017)
